The structures appear in SMILES notation.

Data set [1] can be described thus: Lipophilicity, log D of the compound. The data set is classed as physicochemical. The settings on record: octanol/water.
A short description of data set [2]: Oral bioavailability in human. The settings on record: in vivo. It is filed as ADME, organism-based.
Data set [3] in a line: Clearance in human. It is filed as ADME, organism-based. As to conditions: in vivo.
For data set [4], the target named is T1, CYP3A4 (Homo sapiens, UniProt P08684). Description: (§1) Time dependent inhibition of CYP3A4 in human liver microsomes. The data set is classed as ADME, Microsome. The settings on record: human, liver microsomes. (In general: Liver microsomes are a subcellular fraction often used to study metabolism.)
The target in data set [5] is T2, Cytochrome P450 3A4 (Homo sapiens, UniProt P08684). Described as §1. The data set is classed as ADME, Microsome.
In data set [6] the target is T2, Cytochrome P450 3A4. In words: Time dependent inhibition of CYP3A4-mediated testosterone-6-beta hydroxylation in human liver microsome. It is filed as ADME.
In data set [7] the target is T1, CYP3A4. In words: Inhibition of CYP3A4-mediated testosterone 6 beta hydroxylation in human liver microsome by Dixon plot analysis. The data set is classed as ADME. The settings on record: liver microsomes, probe testosterone (6 beta-hydroxylation).
Data set [8] is filed under the species Homo sapiens. Description: Inhibition of CYP2B6 in human assessed as decrease of hydroxybupropion metabolite systemic exposure. It is filed as ADME, organism-based. Also noted: scale not given: the % may be the effect or the level left. The settings on record: in vivo.
The species entered for data set [9] is Homo sapiens. Description: Inhibition of CYP2B6 in human assessed as increase of bupropion systemic exposure. Also on record: scale not given: the % may be the effect or the level left. It is filed as ADME, organism-based. The settings on record: in vivo.
For data set [10], the target named is T1, CYP3A4. In words: (§2) Time dependent inhibition of CYP3A4. It is filed as ADME.
Data set [11] concerns the target T2, Cytochrome P450 3A4. The description is as §2. The data set is classed as ADME.
The nature of data set [12]: Half life in human. The data set is classed as ADME, organism-based. The settings on record: in vivo.
The target in data set [13] is T3, Cytochrome P450 2C8 (Homo sapiens, UniProt P10632).
T3 sequence (P10632 whole entry): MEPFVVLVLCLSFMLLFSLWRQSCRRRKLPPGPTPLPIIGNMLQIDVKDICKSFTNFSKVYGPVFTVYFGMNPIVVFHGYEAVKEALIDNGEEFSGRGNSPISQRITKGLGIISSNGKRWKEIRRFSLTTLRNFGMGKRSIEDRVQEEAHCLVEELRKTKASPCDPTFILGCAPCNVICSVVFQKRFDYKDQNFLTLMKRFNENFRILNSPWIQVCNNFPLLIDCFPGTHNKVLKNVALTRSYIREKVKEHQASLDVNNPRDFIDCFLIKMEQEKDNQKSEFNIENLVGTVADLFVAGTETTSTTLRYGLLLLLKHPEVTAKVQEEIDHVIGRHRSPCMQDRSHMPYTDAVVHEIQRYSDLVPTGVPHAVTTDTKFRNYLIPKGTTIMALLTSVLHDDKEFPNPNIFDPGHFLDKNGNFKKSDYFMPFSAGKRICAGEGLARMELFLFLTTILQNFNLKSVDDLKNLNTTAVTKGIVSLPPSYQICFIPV
Description: Inhibition of CYP2C8. The data set is classed as ADME.

Data set [14] concerns the target T3, Cytochrome P450 2C8. In words: Reversible inhibition of CYP2C8 in human liver microsomes. The data set is classed as ADME, Microsome.
In a further data set the target is Cytochrome P450 2C9 (Homo sapiens, UniProt P11712). Description: Reversible inhibition of CYP2C9 in human liver microsomes. It is filed as ADME, Microsome.
The target of data set [15] is T1, CYP3A4. In words: (§3) Inhibition of CYP3A4 in human liver microsomes in presence of NADPH. It is filed as ADME, Microsome. The settings on record: human, liver microsomes.
For data set [16], the target named is T2, Cytochrome P450 3A4. The data set is described as §3. The data set is classed as ADME, Microsome.
The target of data set [17] is T3, Cytochrome P450 2C8. Description: Inhibition of CYP2C8 in human liver microsomes in presence of NADPH. It is filed as ADME, Microsome.
In data set [18] the target is T3, Cytochrome P450 2C8. Description: (§4) Time dependent inhibition of CYP2C8 in human liver microsomes. It is filed as ADME, Microsome.
Another data set concerns the target T4, CYP2C8 (Homo sapiens, UniProt P10632).
T4 sequence (P10632 whole entry): T3 sequence (P10632 whole entry)
Described as §4. It is filed as ADME, Microsome. As to conditions: human, liver microsomes.

For the next data set, the target named is Cytochrome P450 2C19 (Homo sapiens, UniProt P33261). In words: (§5) Time dependent inhibition of CYP2C19.
In a further data set the target is CYP2C19 (Homo sapiens, UniProt P33261). The description is as §5.
Sequence of CYP2C19 (P33261 whole entry): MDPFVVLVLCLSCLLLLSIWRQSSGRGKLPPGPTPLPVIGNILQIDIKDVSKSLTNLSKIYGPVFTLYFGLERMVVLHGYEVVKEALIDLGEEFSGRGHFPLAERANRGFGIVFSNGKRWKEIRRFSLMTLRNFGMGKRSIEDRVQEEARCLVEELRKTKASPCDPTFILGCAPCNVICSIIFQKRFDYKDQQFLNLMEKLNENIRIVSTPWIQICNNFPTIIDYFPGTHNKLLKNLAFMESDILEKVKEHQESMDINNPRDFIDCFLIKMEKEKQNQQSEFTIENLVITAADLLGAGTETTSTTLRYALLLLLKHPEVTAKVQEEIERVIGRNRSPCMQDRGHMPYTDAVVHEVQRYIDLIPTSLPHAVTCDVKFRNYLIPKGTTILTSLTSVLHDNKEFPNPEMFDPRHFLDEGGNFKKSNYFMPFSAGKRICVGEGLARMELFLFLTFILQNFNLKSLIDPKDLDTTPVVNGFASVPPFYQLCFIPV

T2 sequence (P08684 whole entry): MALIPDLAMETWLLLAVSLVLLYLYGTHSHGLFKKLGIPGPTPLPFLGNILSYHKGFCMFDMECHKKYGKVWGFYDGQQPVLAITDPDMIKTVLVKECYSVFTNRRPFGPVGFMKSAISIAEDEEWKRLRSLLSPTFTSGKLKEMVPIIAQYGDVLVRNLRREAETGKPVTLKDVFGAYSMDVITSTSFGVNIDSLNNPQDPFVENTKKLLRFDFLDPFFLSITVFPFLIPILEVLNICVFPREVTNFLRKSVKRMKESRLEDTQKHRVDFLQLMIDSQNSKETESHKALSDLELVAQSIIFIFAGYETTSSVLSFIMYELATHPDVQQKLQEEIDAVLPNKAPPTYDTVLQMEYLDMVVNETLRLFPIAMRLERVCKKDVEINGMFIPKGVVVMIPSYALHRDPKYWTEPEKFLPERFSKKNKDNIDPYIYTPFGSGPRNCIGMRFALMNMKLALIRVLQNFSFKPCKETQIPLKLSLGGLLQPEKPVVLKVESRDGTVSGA
T1 sequence (P08684 whole entry): as above
Sequence of Cytochrome P450 2C19 (P33261 whole entry): as the sequence (P33261 whole entry) above
Sequence of Cytochrome P450 2C9 (P11712 whole entry): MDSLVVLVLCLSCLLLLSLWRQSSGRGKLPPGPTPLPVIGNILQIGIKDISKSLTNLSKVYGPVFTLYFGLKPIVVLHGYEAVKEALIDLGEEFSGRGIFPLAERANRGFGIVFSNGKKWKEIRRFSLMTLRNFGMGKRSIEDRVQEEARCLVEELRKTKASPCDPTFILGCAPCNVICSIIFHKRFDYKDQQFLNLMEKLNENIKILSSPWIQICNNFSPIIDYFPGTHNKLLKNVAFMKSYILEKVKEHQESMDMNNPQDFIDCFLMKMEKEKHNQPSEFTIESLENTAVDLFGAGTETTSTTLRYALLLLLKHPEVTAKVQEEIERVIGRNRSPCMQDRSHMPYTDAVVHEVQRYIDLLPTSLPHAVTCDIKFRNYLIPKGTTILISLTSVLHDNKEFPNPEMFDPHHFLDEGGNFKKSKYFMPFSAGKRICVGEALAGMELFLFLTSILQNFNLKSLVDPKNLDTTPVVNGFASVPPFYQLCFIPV

`O=C1CCc2ccc(OCCCCN3CCN(c4cccc(Cl)c4Cl)CC3)cc2N1` [ARIPIPRAZOLE] gave a logD in data set [1] of 5.54. In [2], this compound yielded a bioavailability of 87%. Moreover, the clearance in data set [3] was 0.8 mL/min/kg.
In the case of `CN(c1ncccc1CNc1nc(Nc2ccc3c(c2)CC(=O)N3)ncc1C(F)(F)F)S(C)(=O)=O` [PF-00562271], the kinact on CYP3A4 [4] is 0.00383 s⁻¹. At Cytochrome P450 3A4 [5], this compound gave a Ki of 12 µM.
`CC(C)CN(C[C@@H](O)[C@H](Cc1ccccc1)NC(=O)O[C@H]1CCOC1)S(=O)(=O)c1ccc(N)cc1` showed a Ki on Cytochrome P450 3A4 [6] of 0.37 µM. Also, the kinact on CYP3A4 [7] was 0.00983 s⁻¹.
For the compound `Clc1ccccc1CN1CCc2sccc2C1` [TICLOPIDINE], the figures for the Activity in the data set listed under Homo sapiens [8] and in the data set listed under Homo sapiens [9] were 84% and 85%, respectively.
As to `CC(C)(C)NC(=O)C1(C2CCCCC2)CCN(C(=O)[C@@H](Cc2ccc(Cl)cc2)NC(=O)[C@H]2CCc3ccccc3[C@H]2N)CC1`, the inactivation rate constant (kinact) on CYP3A4 [10] is 0.00133 s⁻¹. The compound also yielded a Ki at Cytochrome P450 3A4 [11] of 23 µM.
As to `CCc1nn(CCCN2CCN(c3cccc(Cl)c3)CC2)c(=O)n1CCOc1ccccc1` [NEFAZODONE], in data set [1], the logD stood at 3.43. In data set [2], this compound gave a bioavailability of 20%. The half-life in [12] was 1 h.
Turning to `Cc1ccc(C)c(OCCCC(C)(C)C(=O)O)c1` [GEMFIBROZIL], the 50% inhibitory concentration (IC50) on Cytochrome P450 2C8 [13] amounted to 28 µM; against Cytochrome P450 2C8 [14] it was 95 µM; against Cytochrome P450 2C9, 9.6 µM.
For the compound `COc1cc(CC(=O)O)ccc1Oc1ccc2[nH]c(C)cc2c1NS(=O)(=O)c1ccc(Cl)cc1Cl`, the kinact on CYP3A4 [15] was 0.00267 s⁻¹. In addition, the Ki on Cytochrome P450 3A4 [16] worked out at 18 µM.
In the case of `Cc1ccc(C)c(OCCCC(C)(C)C(=O)O[C@@H]2O[C@H](C(=O)O)[C@@H](O)[C@H](O)[C@H]2O)c1`, the IC50 against Cytochrome P450 2C8 [13] was 4.1 µM; on Cytochrome P450 2C8 [17], 1.8 µM. At Cytochrome P450 2C8 [18], the Ki came out at 20 µM. The kinact at CYP2C8 is 0.0035 s⁻¹.
Consider `O=c1n(CCCN2CCN(c3cccc(Cl)c3)CC2)nc2ccccn12` [TRAZODONE], for which the logD in data set [1] was determined as 1.58.
`COC(=O)[C@H](c1ccccc1Cl)N1CCc2sccc2C1` [CLOPIDOGREL]: the Activity came to 52% in the data set listed under Homo sapiens [8] and 60% in the data set listed under Homo sapiens [9]. The Ki on Cytochrome P450 2C19 worked out at 14.3 µM. In addition, the inactivation rate constant (kinact) on CYP2C19 is 0.000917 s⁻¹.
Turning to `CC(=O)Oc1cc2c(s1)CCN(C(C(=O)C1CC1)c1ccccc1F)C2` (stereo not given), the Activity in the data set filed under Homo sapiens [8] is listed as 23%; in the data set filed under Homo sapiens [9] it was 18%.

Usually logD stands for lipophilicity at a set pH, counting ionised and neutral species. For orientation: bioavailability means dose-corrected exposure relative to a reference, in per cent. As usually defined, the clearance is the volume of plasma or blood freed of the substance per unit of time. The term kinact denotes the maximal first-order rate at which the target is inactivated. The half-life is the time in which the quantity being followed falls by half. The IC50 is the concentration needed to halve the response being measured.

For the origin of these results see ChEMBL document CHEMBL2176960, “Mechanism-based inactivation (MBI) of cytochrome P450 enzymes: structure-activity relationships and discovery strategies to mitigate drug-drug interaction risks” (J Med Chem, 2012).
